According to US20070196914A1, “Methods for preparing oil bodies comprising active ingredients” (SemBioSys Genetics Inc., priority 2003, published 2007):

Experiments:
[1] = Partitioning of active into washed safflower oil bodies (free oil / total oil extraction, HPLC or absorbance); type: physicochemical, safflower (Carthamus tinctorius); set-up: level of active incorporated into the oil bodies as a percentage of dry weight: concentration or dose not given beside the values; conditions: two-solvent loading, incubated overnight at 34-37° C. (CP 34-42° C.)
Excerpt: Hexane extraction may be used to determine the amount of active present in the free oil (free oil is defined as oil not contained within oil bodies. Note that the intact oil bodies are largely resistant to extraction by hexane alone). (Tzen et al. (1997) J. Biochem 121: 762-768.) Once the free oil has been removed from the active/oil body fraction, an analysis of the total remaining oil may be performed using for example, hexane:isopropanol, chloroform, or chloroform:methanol solution extraction. The amount of active present in both the free oil fraction and the total oil fraction can be determined by a number of methods including, but not limited to, high performance liquid chromatography (HPLC), spectrophotometry, fluorescence, or activity assays depending on the active. By comparing the amount of active in both the free oil fraction and the total oil fraction the average amount of active incorporated into the intact oil bodies can be determined. In general, the efficiency of partitioning of the active into intact oil bodies can range from about 10 to about 99.9%. More typically however the efficiency of partitioning of the active into intact oil bodies will range from about 50 to about 99% and most typically from about 90 to about 99.
Washed safflower oil bodies were prepared as described in example 1. Oil bodies were preserved with 0.1 % Neolone 950 and 0.1 % glycacil L. Clobetasol propionate (CP) (Supplier-Sigma) was weighed (12-30 mg) into a clean and dry 16×100 mm screw-cap Pyrex test tube and mixed with 300 μl of isopropanol then 200 mg of safflower oil. The combined sample was vortexed and subsequently incubated at 34° C. for 20 minutes. After incubation, the sample was re-vortexed then dried under nitrogen for 20 minutes to remove the isopropanol. One ml of washed high dry weight oil bodies were added to the CP/safflower oil mixture at room temperature, centrifuged briefly to pellet contents to allow for thorough mixing, vortexed and further incubated at 34-42° C. overnight in an air tight tube to allow for incorporation of the CP and safflower oil into the oil bodies. A hexane extraction was used to determine the amount of CP present in the free oil (free oil is defined as oil not contained within oil bodies. Note that the intact oil bodies are largely resistant to extraction by hexane alone but all hexane extractions of loaded oil bodies must be corrected for damage done to intact oil bodies by the hexane through corrections using free oil values obtained from unloaded oilbodies). Three ml of hexane are added to the tubes and the tubes are shaken to mix 32 times. The samples are centrifuged in a swinging bucket clinical centrifuge at 3220×g for one minute to separate hexane from the oil body-aqueous phase. Note that the free oil will remain in the hexane layer (top). The hexane layer is removed to another tube and the hexane extraction is repeated on the remaining CP/oil body mixture. Once the majority of the solvent from the second extraction is added to the tube containing the first extract, the hexane containing tube is transferred to a heating block. The hexane was evaporated by subjecting the tubes to a gentle stream of high purity N2 gas while heating the block to 40-45° C. for at least 1.5 hours. Once the free oil was removed from the CP/oil body fraction, an analysis of the total remaining oil was performed. The remaining total oil in intact oil bodies was determined by adding 4 ml of a 3:2 hexane:isopropanol solution (HIP) and shaking to mix vigorously until all of the oil was dissolved in the HIP solvent (about 10-20 seconds). This was followed by the addition of 2.5 ml of 6.67% Na2SO4 (w/v) to the tube and the tube was shaken for another 10 seconds. Phase separation is facilitated by centrifugation for 2 minutes at 3220×g in a swinging bucket clinical centrifuge. The organic or upper phase is removed to a second test tube using a Pasteur pipette while avoiding the transfer of the aqueous phase. […]

[2] = Partitioning of phosphatidylcholine into washed safflower oil bodies (fluorescent tracer); type: physicochemical, safflower (Carthamus tinctorius); conditions: average
Procedure: Washed safflower oil bodies were prepared as described in example 1. Oil bodies were preserved with 0.1% Neolone 950 and 0.1% glycacil L. Phosphatidylcholine (PC, Supplier-Sigma) was weighed (1-300 mg) into a clean and dry 16×100 mm screw-cap Pyrex test tube. A fluorescent tracer (phosphatidic acid, Supplier-Molecular Probes) was added to the PC. The amount used was 0.05-0.25% the weight of the PC of a 1 mg/ml solution of tracer (resuspended following the manufacturer's instructions). 200 ul of isopropanol was added for every 10 mg of PC to dissolve the PC/tracer mixture. Buffer (50 mM NaH2PO4, pH 8.0) was added to the isopropanol mixture using the same buffer (50 mM NaH2PO4, pH 8.0) as the oilbodies were made in. The volume was equivalent to the volume of oilbodies being loaded. The PC/tracer/isopropanol/buffer mixture was sonicated on high for 15-30 seconds. […] Both the wash fractions and the oilbody fractions were assessed for fluorescence quantities after extraction with hexane using a total oil extraction procedure. The total oil extraction was done by adding 4 mls of a 3:2 hexane:isopropanol solution (HIP) to a measured amount of the sample and shaking to mix vigorously until all of the oil was dissolved in the HIP solvent (about 10-20 seconds). […] A known quantity of isopropanol was added to the extracted fractions and the sample was quantitated using a fluorescent spectrophotometer. […]

level of active incorporated into the oil bodies as a percentage of dry weight [1] | average % of the active added that was incorporated into the intact oil bodies [1] | amount of PC loaded in to the membrane of the oil body, % of the dry weight of the oil body ([2]; isopropanol/phosphate buffer pH 8.0, 37° C., without stearylamine) | amount of PC loaded in to the membrane of the oil body, % of the dry weight of the oil body ([2]; stearylamine included in PC/tracer mixture at approximately 30% of the amount of PC) | Compound
0.316% | 94.7% | – | – | CCC(=O)O[C@]1(C(=O)CCl)[C@@H](C)C[C@H]2[C@@H]3CCC4=CC(=O)C=C[C@]4(C)[C@@]3(F)[C@@H](O)C[C@@]21C [clobetasol propionate, (11β,16β)-21-chloro-9-fluoro-11-hydroxy-16-methyl-17-(1-oxopropoxy)pregna-1,4-diene-3,20-dione]
1.36% | 43.9% | – | – | O=C(O)Cc1ccccc1Nc1c(Cl)cccc1Cl [diclofenac]
0.253% | 97.3% | – | – | O=C1c2c(O)cccc2Cc2cccc(O)c21 [dithranol, 1,8-Dihydroxy-9(10H)-anthracenone]
2.43% | 90.8% | – | – | CCCCNc1ccc(C(=O)OCCN(C)C)cc1 [tetracaine, 4-(butylamino)-Benzoic acid, 2-(dimethylamino)ethyl ester]
– | – | 0.12% | 1.25% | Phosphatidylcholine [PC]
